US5614533A, “Substituted pipecolinic acid derivatives as HIV protease inhibitors” (Bio-Mega/Boehringer Ingelheim Research, Inc., priority 1994, dated 1997)

Key:
[1] = system: HIV (H9/HTLV-IIIB) in C8166 cells; assay: plaque assay: inhibition of syncytia formation in HIV-infected C8166 cells; format: cell-based; conditions: Human immunodeficiency virus 1, IIIB, 72 h, 50% inhibition of syncytia formation
Text: Typical of such procedures are those described by S. Harada and N. Yamamoto, Jpn. J. Cancer Res. (Gann), 76, 432 (1985), and S. Harada et al., Science, 229, 563 (1985). An assay based on the latter procedures is described in the examples hereinafter.
The following protocol, used for screening antiviral effects of the compounds of formula 1, is adapted from a plaque assay utilizing HTLV-I transformed cells, previously reported by Harada et al., supra. HTLV-I transformed cells are used because of the rapidity with which HIV will replicate in the cells.
1. The test compound is dissolved in dimethylsulfoxide to a concentration of 5 mg/mL. The resultant solution can be stored at 4° until use.
2. The resultant solution is diluted in RPMI 1640 (Gibco Laboratories, St. Lawrence, Mass., USA) to four times (4×) the final concentration which is to be tested. Once diluted in RPMI 1640, the solution is used in the cell culture assay within 4 h.
3. The 4× solution (50 μL) is added to triplicate wells of a 96 well flat bottomed microtiter plate. RPMI (50 μL) also is added to control wells.
4. C8166 cells (5×10^4) in 50 μL of HEPES-buffered RPMI 1640 (pH=7.2), 10% heat inactivated fetal calf serum (FCS), […] gentamicin (complete media) are added to all wells.
5. Fifty times TCID50 of H9/HTLV-IIIB stock (stored in liquid nitrogen as cell culture supernatant in 50% FCS) in 100 μL of complete media is added to all wells. Infectious titer of virus stocks are as previously determined by end point dilution on C8166 cells. Titer of stocks are stable for 6-12 months when stored at -193°.
6. Microtiter plates are then placed on level shelves of a 37°, 5% CO2 humidified incubator for 72 h.
7. Plates are then removed and centers of syncytia are counted in each well by low power phase contrast light microscopy. […] Control wells should have between 25 and 75 centers of syncytia per well.
8. Percent inhibition of syncytia formation is calculated by the formula: [formula]
The concentration of the test compound which causes a 50% inhibition of syncytia formation, i.e. the EC50, is determined by using the technique of serial dilution of the working solution at step 3 and by using non-linear regression analysis (SAS® program) to graphically plot the observed percent inhibition of syncytia formation against the various concentrations of the test compound.

HIV protease = target: T1, HIV protease (Human immunodeficiency virus type 1 group M subtype B, UniProt P04585); assay: Recombinant HIV Protease HPLC Assay; format: biochemical; conditions: 37°, 30 min, pH 5.5
T1 construct: HIV protease was expressed in E. coli; made in house; host or cells: E. coli (plasmid pBRT1 prt+)
Text: The procedure is based on the capacity of the test compound to inhibit enzymatic cleavage by HIV protease of a decapeptide (the substrate) having an amino acid sequence which includes a known HIV protease cleavage site of a HIV polyprotein; see H. G. Krausslich et al., Proc. Natl. Acad. Sci. USA, 86, 807 (1989). Details of this assay together with the results obtained for exemplified compounds of formula 1 are described in the examples hereinafter.
Recombinant HIV Protease HPLC Assay:
Enzyme: HIV protease was expressed in E. coli {construct pBRT1 prt^+, see W. G. Farmerie et al., Science, 236, 305 (1987)}, according to the following protocol:
E. coli cells containing the pBRT1 prt^+ plasmid were used to inoculate a seed culture media composed of Luria-Bertani Broth containing 100 μg/mL of ampicillin. Flasks were incubated at 37° under agitation for 17 h. Production flasks containing sterile M9 broth, supplemented with 100 μg/mL of ampicillin, were inoculated at a level of 1% (v/v) using the seed culture described above. Total volume in each production flask was 500 mL in a 2 L Erlenmeyer flask. Flasks were incubated at 37° under agitation until a cell concentration corresponding to an optical density ([…]) of 0.6 was reached (no dilution). This time span was routinely 3-4 h. Flasks were then supplemented with 5 mM isopropylthiogalactoside (IPTG, Research Organics, Cleveland, Ohio, USA) and incubation was continued until the cell concentration reached an optical density of 0.2 at 16-fold dilution. Flasks were then supplemented with 1 mM phenylmethylsulfonyl fluoride (PMSF) and rapidly chilled to 4°. The bacterial cells were recovered by centrifugation at 4°. The wet pellet was stored at -70°.
All steps below were performed at 4° unless otherwise indicated. Thawed cells were mixed with buffer A {50 mM tris(hydroxymethyl)[…] HCl (Tris-HCl, pH 7.4); 0.6 mM ethylenediaminetetraacetic acid (EDTA); 0.375M NaCl, 0.2% Nonidet P-40® (BDH Chemicals Ltd., Poole, UK); 1 mM PMSF}, at a ratio of one part cells to nine parts buffer A. Diatomaceous earth (Celite 545®, John Manville, Lompoc, Calif. USA) was added at a ratio of two parts to one part of wet cell weight. The resulting slurry was homogenized at high speed (ca. 20,000 rpm) on a Waring® industrial blender for 8×15 sec. pulses. Cell debris/Celite® was collected by centrifugation and the resulting pellet was extracted with 4.5 parts of buffer A to one part wet solids using the homogenization procedure described above. Supernatants from both homogenization steps were combined and soluble protein was precipitated by the addition of solid (NH4)2 SO4 to yield a final concentration of 75% saturation. This mixture was agitated for 60 min and the precipitate was recovered by centrifugation. The resulting pellet was suspended in buffer B {50 mM Tris-HCl, pH 8; 30 mM NaCl; 1 mM DL-dithiothreitol (DTT); 1 mM EDTA; 1 mM PMSF; 10% glycerol}, and dialyzed for 18 h against the same buffer.
An aliquot of the dialyzed extract containing 150 mg of the protein was loaded onto a Sephadex A25® anion exchange column (Pharmacia, Uppsala, Sweden) with bed dimensions of 70 cm length and 2.5 cm diameter. The sample was eluted isocratically with buffer B at a linear flow rate of 10 cm/h. Fractions containing HIV protease activity (see below for assay description) were combined, and soluble protein was precipitated by the addition of saturated aqueous (NH4)2 SO4 to yield a total (NH4)2 SO4 concentration of 85% saturation. Precipitated protein was removed by centrifugation and the resulting pellet was dissolved in buffer C {50 mM 2-(4-morpholino)ethanesulfonic acid (MES), pH 5.5; 150 mM NaCl; 1 mM DTT; 1 mM EDTA; 10% glycerol}. This preparation was dialyzed for 18 h against buffer C, and then frozen at -70°. All crude extracts were purified by chromatography in aliquots containing 150 mg of protein in the same manner as described above. […]

Compound	IC50 (HIV protease; Table IV) [nM]	other results
CC(C)[C@H](NC(=O)c1ccc2ccccc2n1)C(=O)N[C@@H](Cc1ccccc1)[C@H](O)CN1CC[C@@H](Sc2ccccc2)C[C@H]1C(=O)NC(C)(C)C [Table IV, entry 20, N-tert-butyl-1-{2(R)-hydroxy-4-phenyl-3(S)-{(N-(2-quinolinylcarbonyl)valyl}amino}butyl}-4(R)-(phenylthio)piperidine-2(S)-carboxamide]	3.1	EC50 ([1]; Table IV): 12 nM
CC(C)[C@H](NC(=O)c1ccc2ccccc2n1)C(=O)N[C@@H](Cc1ccccc1)[C@H](O)CN1CC[C@@H](OCc2cccnc2)C[C@H]1C(=O)NC(C)(C)C [Table V, entry 24, N-tert-butyl-1-{2(R)-hydroxy-4-phenyl-3(S)-{{N-(2-quinolylinylcarbonyl)valyl}amino}butyl}-4(R)-(3-pyridinylmethoxy)piperidine-2(S)-carboxamide]		EC50 ([1]; Table V): 53 nM; IC50 (HIV protease; Table V): 3.7 nM
Cc1ccc(F)cc1C(=O)N[C@@H](Cc1ccccc1)[C@H](O)CN1CC[C@@H](Sc2ccncc2)C[C@H]1C(=O)NC(C)(C)C [Table VII, entry 9, N-tert-butyl-1-{3(S)-{{(5-fluoro-2-methylphenyl)carbonyl}amino}-2(R)-hydroxy-4-phenylbutyl}-4(R)-(4-pyridinylthio)piperidine-2(S)-carboxamide]		IC50 (HIV protease; Table VII): 6.8 nM
CC(C)[C@H](NC(=O)c1ccc2ccccc2n1)C(=O)N[C@@H](Cc1ccccc1)[C@H](O)CN1CC[C@@H](Oc2ncccn2)C[C@H]1C(=O)NC(C)(C)C [Table V, entry 10, N-tert-butyl-1-{2(S)(R)-hydroxy-4-phenyl-3(S)-{{N-(2-quinolylinylcarbonyl)valyl}amino}butyl}-4(R)-(2-pyrimidinyloxy)piperidine-2-carboxamide]		EC50 ([1]; Table V): 25 nM; IC50 (HIV protease; Table V): 3.2 nM
CC(C)(C)NC(=O)[C@@H]1C[C@H](Oc2ccccc2)CCN1C[C@@H](O)[C@H](Cc1ccccc1)NC(=O)OCc1ccccc1 [Table IV, entry 6, N-tert-butyl-1-{3(S)-(benzyloxycarbonylamino)-2(R)-hydroxy-4-phenylbutyl}-4(R)-phenoxypiperidine-2(S)-carboxamide]	53	
CC(C)(C)NC(=O)[C@@H]1C[C@H](Sc2ccncc2)CCN1C[C@@H](O)[C@H](Cc1ccccc1)NC(=O)COc1ccccc1 [Table VII, entry 3, N-tert-butyl-1-{3(S)-{{phenoxyacetyl}amino}-2(R)-hydroxy-4-phenylbutyl}-4(R)-(4-pyridinylthio)piperidine-2(S)-carboxamide]		IC50 (HIV protease; Table VII): 34 nM
CC(C)(C)NC(=O)[C@@H]1C[C@H](c2ccccc2)CCN1C[C@@H](O)[C@H](Cc1ccccc1)NC(=O)OCc1ccccc1 [Table IV, entry 2, N-tert-butyl-1-{3(S)-(benzyloxycarbonylamino)-2(R)-hydroxy-4-phenylbutyl}-4(R)-phenylpiperidine-2(S)-carboxamide]	400	
CC(C)(C)NC(=O)[C@@H]1C[C@H](Cc2ccccc2)CCN1C[C@@H](O)[C@H](Cc1ccccc1)NC(=O)OCc1ccccc1 [Table IV, entry 3, N-tert-butyl-1-{3(S)-(benzyloxycarbonylamino)-2(R)-hydroxy-4-phenylbutyl}-4(R)-benzylpiperidine-2(S)-carboxamide]	460	
CC(C)(C)NC(=O)[C@@H]1C[C@H](Sc2ccccc2)CCN1C[C@@H](O)[C@H](Cc1ccccc1)NC(=O)OCc1ccccc1 [Table IV, entry 5, N-tert-butyl-1-{3(S)-(benzyloxycarbonylamino)-2(R)-hydroxy-4-phenylbutyl}-4(R)-(phenylthio)piperidine-2(S)-carboxamide]		EC50 ([1]; Table IV): 800 nM
CC(C)(C)NC(=O)[C@@H]1C[C@H](C2CCCCC2)CCN1C[C@@H](O)[C@H](Cc1ccccc1)NC(=O)OCc1ccccc1 [Table IV, entry 7, N-tert-butyl-1-{3(S)-(benzyloxycarbonylamino)-2(R)-hydroxy-4-phenylbutyl}-4(R)-cylohexylpiperidine-2(S)-carboxamide]	2100	

Now from value to compound, other results behind:

IC50 (HIV protease; Table IV) [nM]	Compound	other results
9.5	CC(C)(C)NC(=O)[C@@H]1C[C@H](Sc2ccccc2)CCN1C[C@@H](O)[C@H](Cc1ccc(F)cc1)NC(=O)OCc1ccccc1 [Table IV, entry 1, N-tert-butyl-1-{3(S)-(benzyloxycarbonylamino)-2(R)-hydroxy-4-(4-fluorophenyl)butyl}-4(R)-(phenylthio)piperidine-2(S)-carboxamide]	
3.2	CC(C)[C@H](NC(=O)OCc1ccccc1)C(=O)N[C@@H](Cc1ccccc1)[C@H](O)CN1CC[C@@H](Sc2ccccn2)C[C@H]1C(=O)NC(C)(C)C [Table IV, entry 33, N-tert-butyl-1-{3(S)-{{N-(benzyloxycarbonyl)valyl}amino}-2(R)-hydroxy-4-phenylbutyl}-4(R)-(2-pyridinylthio)piperidine-2(S)-carboxamide]	
2.5	CC(C)[C@H](NC(=O)OCc1ccccc1)C(=O)N[C@@H](Cc1ccccc1)[C@H](O)CN1CC[C@@H](Sc2ccncc2)C[C@H]1C(=O)NC(C)(C)C [Table IV, entry 34, N-tert-butyl-1-{3(S)-{{N-(benzyloxycarbonyl)valyl}amino}-2(R)-hydroxy-4-phenylbutyl}-4(R)-(4-pyridinylthio)piperidine-2(S)-carboxamide]	
